According to patent publication US12496267B2, “Extract of organic humified materials” (priority 2019, dated 2025):

Assays:
IFN-γ = test: Inflammation: reconstructed human epidermis/PBMC, MSD U-PLEX, IFN-γ; type: cell-based
Protocol: (§1) Potential immune modulatory effects were determined on reconstructed human epidermis (RHE) using a 3D Skin Modell (Cell systems). In the first step the skin patches are stimulated with specific controls and stimuli for a defined time period. In this context it had to be considered that different stimuli require different incubation times. The incubation with heat inactivated C.acnes (10^7 cells/approach) as well as the direct incubation with the test substances (AHE/FA/BIS) was performed for 16h at 37° C. The AHE test substances comprised AHE solutions, comprising either 1%, 2% or 5% AHE in PBS, generated as described in Example 8. The incubation with the positive control (5% SDS) was performed for 20 min (37° C.). After the primary stimulation step skin patches were washed (PBS 3×300 μl) and subjected to a regeneration phase (24h/37° C.) in presence of the indicated substances (CM/AHE/FA/CH/BIS). After this incubation phase the culture medium of each approach was isolated and used to stimulate human PBMCs. Hereby 100 μl of the RHE culture was added cultures of human PBMCs (1×10^6 cells in 300 μl culture medium) and incubated for additional 16 h (37° C.). After this incubation step, PBMCs were separated by centrifugation and the supernatant was saved for the MSD multiplexing platform. In parallel the cells of the RHE culture were subjected to cell lysis (1% SDS, 30 min/4° C. agitation). Cell extracts were saved for the MSD multiplexing platform.
(§2) Using the MSD U-PLEX it is possible to create an individualized multiplex assays for any combination of analytes. Hereby biotinylated capture reagents are coupled to U-PLEX Linkers. The U-PLEX Linkers then self-assemble onto unique spots on the U-PLEX plate. After analytes in the sample bind to the capture reagents, detection antibodies conjugated with electro-chemiluminescent labels (MSD GOLD SULFO-TAG) bind to the analytes to complete the sandwich immunoassay. Using this technology, the following markers were immobilized:
(§3) U-PLEX Human IFN-γ, U-PLEX Human IL-16, U-PLEX Human IL-2, U-PLEX Human IL-4, U-PLEX Human IL-5, U-PLEX Human IL-6, U-PLEX Human IL-8, U-PLEX Human IL-12p70, U-PLEX Human IL-13, U-PLEX Human IL-17A, U-PLEX Human IL-17F, U-PLEX Human IL-22, U-PLEX Human IL-23, U-PLEX Human TNF-α. U-PLEX Human TGF-β1. All steps were performed according to the supplier's protocol.
(§4) As described above, the Reconstructed human epidermis (RhE) was stimulated with the indicated substances and stimuli (Sample # Description, Tables 11-21) for 16 h. Upon this step the RhE was washed and in incubated in a second line with the indicated substances or culture medium. As controls, the RhE was treated in the first line with PBS and subsequently with culture medium. As further controls the PBMCs were treated with culture medium alone, with heat inactivated C. acnes and with pooled supernantant (SN) of the RhEs before stimulation. For Mesoscale analysis, the supernatant of the PBMC culture (PBMCs) was compared with a cell extract of the RhE prepared after the individual incubation steps (RhEs) and the supernatant of the RhEs after the stimulation steps (SN RhEs). RhE treated in the first and second line with culture medium (Rhe NC) can be used as negative control in all settings.

IL-5 = test: Inflammation: reconstructed human epidermis/PBMC, MSD U-PLEX, IL-5; type: cell-based
Protocol: as §1, §2, §3, §4

TNFα = test: Inflammation: reconstructed human epidermis/PBMC, MSD U-PLEX, TNFα; type: cell-based
Protocol: as §1, §2, §3, §4

IL-6 = test: Inflammation: reconstructed human epidermis/PBMC, MSD U-PLEX, IL-6; type: cell-based
Protocol: as §1, §2, §3, §4

IL-4 = test: Inflammation: reconstructed human epidermis/PBMC, MSD U-PLEX, IL-4; type: cell-based; conditions: PBMCs (supernatant)
Protocol: as §1
as §2, with “immobilized: […]” for “immobilized:”

IL-1β = test: Inflammation: reconstructed human epidermis/PBMC, MSD U-PLEX, IL-1β; type: cell-based
Protocol: as §1, §2, §3, §4

IL-12p70 = test: Inflammation: reconstructed human epidermis/PBMC, MSD U-PLEX, IL-12p70; type: cell-based
Protocol: as §1, §2, §3
As described above, the Reconstructed human epidermis (RhE) was stimulated with the indicated substances and stimuli (Sample # Description, Tables 11-21) for 16 h. Upon this step the RhE was washed and in incubated in a second line with the indicated substances or culture medium. As controls, the RhE was treated in the first line with PBS and subsequently with culture medium. […]

IL-8 = test: Inflammation: reconstructed human epidermis/PBMC, MSD U-PLEX, IL-8; type: cell-based
Protocol: as §1, §2, §3, §4

IL-13 = test: Inflammation: reconstructed human epidermis/PBMC, MSD U-PLEX, IL-13; type: cell-based; conditions: PBMCs (supernatant)
Protocol: as §1
as §2, with “immobilized: […]” for “immobilized:”

Keratin 16 = test: Skin barrier: Western blot of Cytokeratin 16 in HaCat 3-dimensional culture; type: cell-based, human
Protocol: FIG. 14: Western Blot Analysis with anti-Cytokeratin 16 was performed as described. The primary antibody (Keratin 16 (KRT16): Cusabio Technology CSB-PA012515LA01Hu) was used in a dilution of 1:500. After the primary incubation step binding of the primary antibody was visualized with an anti-rabbit-IG conjugated to horse raddish peroxidase. Detection of Cytokeratin-16 with an apparent MW of 51 kDa was visualized using the ECL Technology in combination with a BioRad Gel documentation system.
(§5) To determine the effects of the Alpine Heilmoor Extract on the stability of the membrane barrier, human Keratinocytes (HaCat) were analysed in a 3-dimensional cell culture system. Hereby, cells (5×10^4/insert) were seeded on culture inserts of the system and cultivated in 24 well plates for 14 days with medium exchange in 3-day intervals and permanent monitoring of the TEER value. Reaching a constant TEER value cells were stimulated with heat inactivated C. acnes (10^7 cells/well) for 16 h. Subsequently, cells were washed and incubated with described 2nd line substances (i.e. AHE solutions, comprising either 1%, 2% or 5% AHE in PBS, generated as described in Example 8) for 24 hours. […]
(§6) Effects of the indicated stimuli/second line substances were evaluated by determination of the expression levels of membrane markers Cytokeratin 10/Cytokeratin 16/Fillagrin and Ki67. […]

[1] = tested on: human Keratinocyte cell line (HaCat); test: Wound healing: scratch of HaCat keratinocyte monolayer, regeneration over 72 h; type: cell-based; conditions: EGF 10 ng/ml; within 72 hours
Protocol: (§7) A human Keratinocyte cell line (HaCat) was cultivated in 6 well plates to reach a dense cell layer. Subsequently the monolayer was injured with a mechanical device leading to a cross formed scratch in the monolayer. Upon scratching cells were washed once with PBS and treated with the test substances outlined above as well as with appropriate controls. The ingrowth of cells was monitored/documented for another 72 hours to the point where the cross formed injury of the monolayer was recovered with cells. At that point cells were washed and harvested. Cell extracts were generated by treatment with PBS/1% Triton X100 (30 min on ice). Subsequently cell extracts were analysed by SDS-PAGE/Western Blotting using antibodies directed towards the […] markers E-Cadherin and Paxillin (FIG. 10 and FIG. 11).
Cells were treated with AHE solutions, comprising either 1% or 5% AHE in PBS (phosphate buffered saline). The dry extract was generated as described in Example 1, and then dissolved in PBS at 37° C. for 72 hours using a weight/volume ratio of 0.1 g/mL, 0.2 g/mL or 0.5 g/mL, respectively.
For comparison, cells were also treated with Fulvic Acid and Charcoal, EGF was used as positive control, Medium without active substance was used as negative control.

Paxillin = test: Western blot of Paxillin in scratched HaCat cells; type: cell-based, human; conditions: comparators: EGF; Fulvic Acid (1% per FIG. 10)
Protocol: (§8) FIG. 10: HaCat cells were cultured as described. 72h after mechanical disruption, cells were lysed (PBS/1% Triton X100, 30 min, 4° C.) and subsequently subjected to SDS-PAGE/Western Blotting. Cell adhesion markers were determined with specific antibodies directed towards cell adhesion markers E-Cadherin and Paxillin. Reactivities were normalized using an antibody directed against the housekeeping protein Actin.
as §8, with “11:” for “10:”, “Paxillin.” for “Paxillin. Reactivities were normalized using an antibody directed against the housekeeping protein Actin.”
as §7, with “Upon scratching cells were washed once with PBS and treated with the test substances outlined above as well as with appropriate controls.” left out, “At that point cells were washed and harvested. Cell extracts were generated by treatment with PBS/1% Triton X100 (30 min on ice).” left out, “11). […]” for “11).”

[2] = tested on: human colorectal cells (CaCo2); test: Membrane barrier enhancement: TEER of CaCo2 3-dimensional culture; type: cell-based; conditions: EGF
Protocol: To determine the effects of the test substances on the stability on the human gut barrier, human colorectal cells (CaCo2) were analysed in a 3-diemsional cell culture system. Cells (5×10^4/insert) were seeded on culture inserts of the system and cultivated in 24 well plates for 14 days with medium exchange in 3-day intervals and permanent monitoring of the TEER value. […] Subsequently, cells were washed and incubated with described 2nd line substances (i.e. AHE solutions, comprising either 1%, 2% or 5% AHE in PBS, generated as describe din Example 8) for 24 hours. After this step cells were washed and cell extracts were prepared by incubation with PBS/1% Triton X100. Cell extracts are ready for SDS-PAGE/Western Blotting.

Keratin 10 = test: Skin barrier: Western blot of Cytokeratin 10 in HaCat 3-dimensional culture; type: cell-based, human; conditions: positive control EGF
Protocol: FIG. 13: Western Blot Analysis with anti-Cytokeratin 10 was performed as described. The primary antibody (Keratin 10 (KRT10): Cusabio Technology CSB-PA445987) was used in a dilution of 1:1000. After the primary incubation step binding of the primary antibody was visualized with an anti-rabbit-IG conjugated to horse raddish peroxidase. Detection of Cytokeratin-10 with an apparent MW of 58 kDa was visualized using the ECL Technology in combination with a BioRad Gel documentation system.
as §5, §6

[3] = PBMCs (supernatant), RhE C. acnes-stimulated, then substance, 1%
[4] = PBMCs (supernatant), RhE without C. acnes, 1%
[5] = RhEs (cell extract), RhE without C. acnes, 1%
[6] = SN RhEs, RhE C. acnes-stimulated, then substance, 1%
[7] = SN RhEs, RhE without C. acnes, 1%
[8] = RhE C. acnes-stimulated, then substance, 1%
[9] = PBMCs (supernatant), RhE 5% SDS, then culture medium
[10] = SN RhEs, RhE 5% SDS, then culture medium
[11] = RhE 5% SDS, then culture medium

CC(C)=CCC[C@](C)(O)C1CC=C(C)CC1 (stereo partly shown) [Bisabolol]
INF-y concentration (IFN-γ; [3]): 124.4 pg/mL | INF-y concentration (IFN-γ; [4]): 90.5 pg/mL | INF-y concentration (IFN-γ; [5]): 8.3 pg/mL | INF-y concentration (IFN-γ; [6]): 13.9 pg/mL | IL-5 concentration (IL-5; [3]): 24.1 pg/mL | IL-5 concentration (IL-5; [4]): 18.2 pg/mL | IL-5 concentration (IL-5; [6]): 1.1 pg/mL | IL-5 concentration (IL-5; [7]): 0.0 pg/mL | TNFα concentration (TNFα; [3]): 51.6 pg/mL | TNFα concentration (TNFα; [4]): 29.8 pg/mL | TNFα concentration (TNFα; [6]): 8.6 pg/mL | TNFα concentration (TNFα; [7]): 17.1 pg/mL | IL-6 concentration (IL-6; [3]): 13038.0 pg/mL | IL-6 concentration (IL-6; [4]): 12302.5 pg/mL | IL-6 concentration (IL-6; [6]): 75.1 pg/mL | IL-6 concentration (IL-6; [7]): 30.8 pg/mL | IL-4 concentration (IL-4; [8]): 10.1 pg/mL | IL-4 concentration (IL-4; RhE without C. acnes, 1%): 9.1 pg/mL | IL-1β concentration (IL-1β; [3]): 1525 pg/mL | IL-1β concentration (IL-1β; [4]): 1277 pg/mL | IL-1β concentration (IL-1β; [6]): 8.5 pg/mL | IL-1β concentration (IL-1β; [7]): 5.4 pg/mL | IL-12p70 concentration (IL-12p70; [3]): 69.9 pg/mL | IL-12p70 concentration (IL-12p70; [4]): 51.3 pg/mL | IL-12p70 concentration (IL-12p70; [6]): 3.3 pg/mL | IL-8 concentration (IL-8; [3]): 43765.9 pg/mL | IL-8 concentration (IL-8; [4]): 44123.3 pg/mL | IL-8 concentration (IL-8; RhEs (cell extract), RhE C. acnes-stimulated, then substance, 1%): 58.1 pg/mL | IL-8 concentration (IL-8; [5]): 68.9 pg/mL | IL-8 concentration (IL-8; [6]): 4317.3 pg/mL | IL-8 concentration (IL-8; [7]): 2459.3 pg/mL | IL-13 concentration (IL-13; [8]): 186.6 pg/mL | IL-13 concentration (IL-13; RhE without C. acnes, 1%): 157.9 pg/mL

CCCCCCCCCCCCOS(=O)(=O)[O-].[Na+] [Rhe PC, SDS]
INF-y concentration (IFN-γ; [9]): 114.7 pg/mL | IL-5 concentration (IL-5; [9]): 25.4 pg/mL | IL-5 concentration (IL-5; [10]): 1.0 pg/mL | TNFα concentration (TNFα; [9]): 24.0 pg/mL | IL-6 concentration (IL-6; [9]): 12909.3 pg/mL | IL-6 concentration (IL-6; [10]): 0.3 pg/mL | IL-4 concentration (IL-4; [11]): 9.0 pg/mL | IL-1β concentration (IL-1β; [9]): 1133 pg/mL | IL-12p70 concentration (IL-12p70; [9]): 63.0 pg/mL | IL-8 concentration (IL-8; [9]): 43111.6 pg/mL | IL-8 concentration (IL-8; RhEs (cell extract), RhE 5% SDS, then culture medium): 33.5 pg/mL | IL-8 concentration (IL-8; [10]): 77.2 pg/mL | IL-13 concentration (IL-13; [11]): 220.6 pg/mL

EGF: positive control (10 ng/ml in Example 8)
Cytokeratin 16 specific band (51 kDa) (Keratin 16; EGF): detected | anti-Cytokeratin 16 reactive protein complex at about 75 kDa (Keratin 16; positive control EGF): visible | regeneration of scratched keratinocyte monolayer [1]: regenerated well | expression of cell adhesion molecule Paxillin (Paxillin): also observed | TEER value ([2]; D15 (1 d after stimulation with IL1alpha/TNF-alpha)): 4800 Ω/cm^2 | TEER value ([2]; D15 (non stimulated controls)): 4000 Ω/cm^2 | TEER value ([2]; D17 (after regeneration phase with extracts: non stimulated controls)): 7200 Ω/cm^2 | TEER value ([2]; D17 (after regeneration phase with extracts: stimulated skin)): 9600 Ω/cm^2 | Cytokeratin 10 band (58 kDa) (Keratin 10): induction
